Patent publication US12630528B2, “Amino aryl derivative useful as diacylglycerol acyltransferase 2 inhibitor and use thereof” (LG CHEM, LTD., priority 2019, dated 2026)

Biological target: T1, human DGAT2 (Homo sapiens, UniProt Q96PD7)
T1 construct: FLAG (DYKDDDDK); made in house; host or cells: Sf-21 insect cells (BacPAK baculovirus system); membrane fraction used
T1 sequence (Q96PD7 1-388): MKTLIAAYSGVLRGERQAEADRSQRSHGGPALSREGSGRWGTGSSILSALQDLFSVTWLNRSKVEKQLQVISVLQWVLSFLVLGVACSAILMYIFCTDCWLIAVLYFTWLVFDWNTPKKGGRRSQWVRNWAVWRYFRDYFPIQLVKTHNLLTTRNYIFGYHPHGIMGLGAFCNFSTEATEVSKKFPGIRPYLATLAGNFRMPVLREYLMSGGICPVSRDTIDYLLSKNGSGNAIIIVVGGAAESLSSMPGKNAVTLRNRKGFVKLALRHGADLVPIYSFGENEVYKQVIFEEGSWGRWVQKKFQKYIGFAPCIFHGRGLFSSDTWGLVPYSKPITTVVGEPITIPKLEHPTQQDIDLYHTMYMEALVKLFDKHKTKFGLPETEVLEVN
Assay: DGAT2 enzyme activity inhibition, Phospholipid FlashPlate SPA
Format: biochemical
Settings: recombinant human DGAT2 membrane protein from Sf-21 cells; inhibition of [14C]-TG production; 37° C.
Experimental: In order to prepare the pBacPAK9-DGAT2, which is DGAT2 expression vector, the human DGAT2 gene amplified by polymerase chain reaction (PCR) was cloned into the EcoR1 and Xho1 sites of the pBacPAK9 (clonctech) vector. The nucleotide sequence of the primers used in PCR was the forward primer 5′ […] (SEQ. ID. NO: 2). The composition of the reaction solution was to contain 50 ng of cDNA clone (OriGene), 200 μM of dATP, dCTP, dTTP, dGTP, 200 nM of each primer, 1 unit of Tag DNA Polymerase (Toyobo), 1×PCR buffer, and the final volume was adjusted to 20 μl. The reaction conditions were denatured at 95° C. for 5 minutes, followed by 30 times of 94° C. for 20 seconds, 60° C. for 20 seconds, and 72° C. for 90 seconds, followed by further reaction at 72° C. for 7 minutes.
Recombinant human DGAT2 protein was expressed in Sf-21 cells, which are insect cells, by using the BacPack baculovirus expression system (Clontech). The brief manufacturing process is as follows. First, the pBacPAK9-DGAT2 expression vector was transfected with BacPAK6 virus DNA (Bsu36I digest) into sf21 cells using Bacfectin to prepare a recombinant DGAT2 expressing baculovirus. The thus prepared baculovirus was infected with Sf-21 cells at 10 MOI (multiplicity of infection), and after 72 hours, infected insect cells were collected and membrane proteins were isolated. For membrane protein separation, the cell pellet was dissolved in a sucrose solution containing 250 mM sucrose, 10 mM Tris (pH 7.4), and 1 mM ethylenediamine-tetraacetic acid (EDTA), and then homogenized by using a dounce homogenizer, and the supernatant was taken by centrifuging at 600×g for 15 minutes, and centrifuged at 100,000×g for 1 hour to discard the supernatant, and the remaining pellet was resuspended in 20 mM HEPES buffer (pH 7.4). The prepared DGAT2 overexpressing membrane protein was dispensed in 100 μl and stored at −80° C. until use. Protein concentration was quantified by using the BCA Protein Assay Kit (Thermo Scientific).
In vitro DGAT2 analysis was performed using a Phospholipid Flash Plate (PerkinElmer) based on the principle of SPA (Scintilation Proximity Assay). First, DGAT2 inhibition compounds serially diluted 5 times from 3 nM to 10 μM (final concentration, 1% DMSO) were mixed in a buffer solution containing 2 μg DGAT2-membrane protein and 20 mM HEPES, 20 mM MgCl2, 1 mg/mL BSA, 50 μM 1,2 sn-oleoyl glycerol (Sigma), put in a 96-well flash plate (FlashPlate) and reacted at 37° C. for 20 minutes, and then 1 μM [14C] ole oil CoA (PerkinElmer, NEC651050UC) was added to be a final volume of 100 μL and further reacted at 37° C. for 15 minutes. After the enzymatic reaction was completed, 100 μL of isopropanol was added, the plate was sealed with a film, and the plate was shaken slowly in a plate shaker. The next day, the amplified scintillation signal (cpm) in Topcounter (Packard) was measured to measure the degree of production of [14C]-labeled triacyl glycerol (TG) as a reaction product. The measured value when the compound was not treated was used as a positive control, and the measured value of the compound treated group was calculated as a relative % to measure the inhibition effect of the compound on TG production.

Row | IC50 | SMILES
1 | 160 nM | CCOc1ccccc1O[C@@H]1CCCN(c2cncc(Nc3nccc(-c4ccc(CC(C)(C)C(=O)O)cc4)n3)n2)C1 [Example 153, (R)-3-(4-(2-((6-(3-(2-ethoxyphenoxy)piperidin-1-yl)pyrazin-2-yl)amino)pyrimidin-4-yl)phenyl)-2,2-dimethylpropanoic Acid]
2 | 670 nM | CCOc1ccccc1O[C@@H]1CCCN(c2cncc(Nc3nc(-c4cccc(CC(C)(C)C(=O)O)c4)cc(C(F)(F)F)n3)n2)C1 [Example 167, (R)-3-(3-(2-((6-(3-(2-ethoxyphenoxy)piperidin-1-yl)pyrazin-2-yl)amino)-6-(trifluoromethyl)pyrimidin-4-yl)phenyl)-2,2-dimethylpropanoic Acid]
3 | 500 nM | CCOc1cccnc1O[C@@H]1CCCN(c2cncc(Nc3ccc(F)c(-c4cccc(OC(C)(C)C(=O)O)c4)n3)n2)C1 [Example 105, (R)-2-(3-(6-((6-(3-((3-ethoxypyridin-2-yl)oxy)piperidin-1-yl)pyrazin-2-yl)amino)-3-fluoropyridin-2-yl)phenoxy)-2-methylpropanoic Acid]
4 | 380 nM | CCOc1cc(F)ccc1O[C@@H]1CCCN(c2cncc(Nc3cccc(-c4ccc(OC(C)(C)C(=O)O)cc4)n3)n2)C1 [Example 177, (R)-2-(4-(6-((6-(3-(2-ethoxy-4-fluorophenoxy)piperidin-1-yl)pyrazin-2-yl)amino)pyridin-2-yl)phenoxy)-2-methylpropanoic Acid]
5 | 1200 nM | CCOc1ccccc1O[C@@H]1CCCN(c2cncc(Nc3cccc(Oc4ccc(C(=O)O)cc4)n3)n2)C1 [Example 89, (R)-4-((6-((6-(3-(2-ethoxyphenoxy)piperidin-1-yl)pyrazin-2-yl)amino)pyridin-2-yl)oxy)benzoic Acid]
6 | > 10000 nM | CCOc1ccccc1O[C@@H]1CCCN(c2cncc(Nc3cncc(-c4cccc(CC(C)(C)C(=O)O)c4)c3)n2)C1 [Example 47, (R)-3-(3-(5-((6-(3-(2-ethoxyphenoxy)piperidin-1-yl)pyrazin-2-yl)amino)pyridin-3-yl)phenyl)-2,2-dimethylpropanoic Acid]
7 | 500 nM | CCOc1cccnc1O[C@@H]1CCCN(c2cncc(Nc3cccc(-c4ccc(OC(C)(C)C(=O)O)cc4)n3)n2)C1 [Example 83, (R)-2-(4-(6-((6-(3-((3-ethoxypyridin-2-yl)oxy)piperidin-1-yl)pyrazin-2-yl)amino)pyridin-2-yl)phenoxy)-2-methylpropanoic Acid]
8 | 130 nM | CCOc1ccccc1O[C@@H]1CCCN(c2cncc(Nc3ccccn3)n2)C1 [Example 31, (R)-6-(3-(2-ethoxyphenoxy)piperidin-1-yl)-N-(pyridin-2-yl)pyrazin-2-amine]
9 | > 10000 nM | CCOc1ccccc1O[C@@H]1CCCN(c2cncc(Nc3nccc(N4CCC[C@H]4C(=O)O)n3)n2)C1 [Example 117, (2-((6-((R)-3-(2-ethoxyphenoxy)piperidin-1-yl)pyrazin-2-yl)amino)pyrimidin-4-yl)-L-proline]
10 | 670 nM | CCOc1ccccc1O[C@@H]1CCCN(c2nc(Nc3cccc(-c4cccc(CC(C)(C)C(=O)O)c4)n3)ncc2C(F)(F)F)C1 [Example 71, (R)-3-(3-(6-((4-(3-(2-ethoxyphenoxy)piperidin-1-yl)-5-(trifluoromethyl)pyrimidin-2-yl)amino)pyridin-2-yl)phenyl)-2,2-dimethylpropanoic Acid]
11 | 590 nM | CCOc1ccccc1O[C@@H]1CCCN(c2cncc(Nc3nccc(-c4cccc(OC(C)(C)C(=O)O)c4)n3)n2)C1 [Example 176, (R)-2-(3-(2-((6-(3-(2-ethoxyphenoxy)piperidin-1-yl)pyrazin-2-yl)amino)pyrimidin-4-yl)phenoxy)-2-methylpropanoic Acid]
12 | > 10000 nM | CCOc1ccccc1O[C@@H]1CCCN(c2cncc(Nc3ccc(CC(=O)O)cn3)n2)C1 [Example 36, (R)-2-(6-((6-(3-(2-ethoxyphenoxy)piperidin-1-yl)pyrazin-2-yl)amino)pyridin-3-yl)acetic Acid]
13 | 8800 nM | CCOc1ccccc1O[C@@H]1CCCN(c2cncc(Nc3nc4ccc(S(C)(=O)=O)cc4s3)n2)C1 [Example 7, (R)—N-(6-(3-(2-ethoxyphenoxy)piperidin-1-yl)pyrazin-2-yl)-6-(methanesulfonyl)benzo[d]thiazol-2-amine]
14 | 6300 nM | CCOc1ccccc1O[C@@H]1CCCN(c2cncc(Nc3nccs3)n2)C1 [Example 3, (R)—N-(6-(3-(2-ethoxyphenoxy)piperidin-1-yl)pyrazin-2-yl)thiazol-2-amine]
15 | 4000 nM | CCOc1ccccc1O[C@@H]1CCCN(c2cncc(Nc3cc(-c4cccc(CC(C)(C)C(=O)O)c4)ccn3)n2)C1 [Example 44, (R)-3-(3-(2-((6-(3-(2-ethoxyphenoxy)piperidin-1-yl)pyrazin-2-yl)amino)pyridin-4-yl)phenyl)-2,2-dimethylpropanoic Acid]
16 | 340 nM | CCOc1ccccc1O[C@@H]1CCCN(c2cncc(Nc3cccc(Oc4cccc(C(C)(C)C(=O)O)c4)n3)n2)C1 [Example 91, (R)-2-(3-((6-((6-(3-(2-ethoxyphenoxy)piperidin-1-yl)pyrazin-2-yl)amino)pyridin-2-yl)oxy)phenyl)-2-methylpropanoic Acid]
17 | > 10000 nM | CCOc1ccccc1O[C@@H]1CCCN(c2cncc(Nc3ccn(CC(C)(C)C(=O)O)n3)n2)C1 [Example 21, (R)-3-(3-((6-(3-(2-ethoxyphenoxy)piperidin-1-yl)pyrazin-2-yl)amino)-1H-pyrazol-1-yl)-2,2-dimethylpropanoic Acid]
18 | > 10000 nM | CCOc1ccccc1O[C@@H]1CCCN(c2cncc(Nc3ncc(C(=O)O)cn3)n2)C1 [Example 114, (R)-2-((6-(3-(2-ethoxyphenoxy)piperidin-1-yl)pyrazin-2-yl)amino)pyrimidine-5-carboxylic Acid]
19 | 180 nM | CCOc1cccnc1O[C@@H]1CCCN(c2cncc(Nc3nccc(-c4ccc(CC(C)(C)C(=O)O)cc4)n3)n2)C1 [Example 154, (R)-3-(4-(2-((6-(3-((3-ethoxypyridin-2-yl)oxy)piperidin-1-yl)pyrazin-2-yl)amino)pyrimidin-4-yl)phenyl)-2,2-dimethylpropanoic Acid]
20 | 340 nM | CCOc1ccccc1O[C@@H]1CCCN(c2cncc(Nc3nccc(C4CC5CC4CC5C(=O)O)n3)n2)C1 (stereo partly drawn) [Example 124, 5-(2-((6-((R)-3-(2-ethoxyphenoxy)piperidin-1-yl)pyrazin-2-yl)amino)pyrimidin-4-yl)bicyclo[2.2.1]heptane-2-carboxylic Acid]
21 | 480 nM | CCOc1ccccc1O[C@@H]1CCCN(c2cncc(Nc3ccnc(-c4cccc(OC(C)(C)C(=O)O)c4)n3)n2)C1 [Example 174, (R)-2-(3-(4-((6-(3-(2-ethoxyphenoxy)piperidin-1-yl)pyrazin-2-yl)amino)pyrimidin-2-yl)phenoxy)-2-methylpropanoic Acid]
22 | > 10000 nM | CCOc1ccccc1O[C@@H]1CCCN(c2cncc(Nc3nccc(N4CCC[C@H](OCC(=O)O)C4)n3)n2)C1 [Example 131, 2-(((S)-1-(2-((6-((R)-3-(2-ethoxyphenoxy)piperidin-1-yl)pyrazin-2-yl)amino)pyrimidin-4-yl)piperidin-3-yl)oxy)acetic Acid]
